The text below walks through data of patent US20100183658A1, “Novel Compounds for Enhancing MHC Class II Therapies” (The Brigham and Women's Hospital, Inc., priority 2007, published 2010).

One data set concerns the target T1, empty DR2 molecules (Homo sapiens, UniProt P01903+P01911).
T1 construct: we generated DR/CLIP complexes as soluble molecules in CHO cells; CLIP peptide (of invariant chain, CD74) joined through a linker with a thrombin cleavage site (N, cleaved yes); made in house
The data set is described as follows: Association of Alexa-488 MBP peptide to empty DR2 molecules after photo-cleavage of bound peptide (FP). In kind it is biochemical. The note with it: photo-cleaved bound peptide, with versus without compound. From the text: DM acts as a catalyst that accelerates peptide binding reactions and increases both the rate of peptide dissociation and association. […] Rigorous testing of this hypothesis required generation of empty DR molecules, a task that is challenging because DR molecules aggregate over time in the absence of peptide. Applicants therefore synthesized a peptide with a photo-cleavable residue (a derivative of phenylalanine), so that the binding site could be rapidly vacated by peptide cleavage. This approach has been reported for the creation of empty MHC class I molecules (Toebes et al., 2006, Nat. Med., 12:246-251). The photoreactive group [3-amino-3-(2-nitro) phenyl-propionic acid; […]] was placed at the P4 position of the peptide, close to the center of DR2 bound peptide. The peptide also carried an N-terminal DNP group for affinity isolation of the complex generated with this peptide. […] Applicants then loaded this peptide onto DR2 molecules, isolated the complex by DNP affinity chromatography, irradiated the samples at 360 nm at 4° C., added Alexa™-488 labeled MBP and tracked its association to DR2 by FP in the presence and absence of Compound (Ia). Applicants observed a striking Compound (Ia)-induced acceleration of Alexa™-488 MBP association to DR2 when the bound peptide was photo-cleaved compared to reactions with photo-cleavage but no Compound (Ia) as diagrammed in FIG. 5. […]

In another data set the test system is MGAR cells. Put plainly: Cellular assay: MBP peptide loading on MGAR cells, FACS labeling with MK16 mAb. In kind it is cell-based, human. The note with it: for activity relative to Compound (Ia) in loading of MBP peptide to DR2: MGAR cells, MBP peptide 1 μM, FIG. 13B, 14B. The method, then:
The cells were then labeled with biotinylated MK16 Fab and streptavidin-APC and analyzed by FACS. Cells not pulsed with peptide (green line) were used as a negative control to define background labeling of MK16.
(§1) MGAR cells were incubated with MBP peptide (1 μM) in the presence of different compounds and the amount of DR2 bound peptide was determined by FACS labeling with the MK16 mAb.
as §1, §1

For data set [1] the following is noted: mouse, in vivo. The source says:
An important aspect of the medicinal chemistry effort is a thorough analysis of potential in vivo toxicity.

A further data set deals with dendritic cells. Put plainly: Peptide presentation by dendritic cells in vivo (MK16 labeling of draining lymph node cells). The following applies: co-administered at 50-200 μM s.c. with MBP peptide. The source says: Applicants next established the higher levels of peptide presentation in the presence of Compound (Ia) in human antigen presenting cells (APCs). The goal of these experiments is to examine whether Compound (Ia) covalently linked to the MBP peptide (abbreviated as Compound (Ia)*MBP peptide) and Compound (Ia) co-administered with peptide (Compound (Ia)+MBP peptide) enhance binding to MHC-II in vivo compared to unmodified peptide. The MK16 mAb (Krogsgaard et al., 2000, J. Exp. Med., 191:1395-1412) is used to directly quantify DR2/MBP peptide complexes on the surface of dendritic cells in lymph nodes draining the s.c. injection site. Lymph nodes are dissected 24 hours following injection of peptides in PBS and cell suspensions are labeled with CD11c (dendritic cells), MK16 (DR2/MBP), and Annexin-V (exclusion of apoptotic cells) for FACS analysis. The efficacy of Compound (Ia)*MBP peptide and unmodified MBP peptide are compared at concentrations ranging from 1 to 100 μM administered s.c. in the flank in 0.2 ml of PBS. In the co-administration mode, Compound (Ia) is added to the inoculum at concentrations of 50-200 μM.

The test system of a further data set is CD4 T cell response. The data set is described as follows: Immunization of HLA-DR4 transgenic mice with viral and tumor peptides, CD4 T cell response. The format is in vivo. The following applies: co-administered with or covalently linked to peptide. From the text:
HLA-DR4 transgenic mice (DRA, DRB1*0401) are used to examine whether Compound (Ib), Compound (Ia) and the other compounds enhance the CD4 T cell response following immunization with viral and tumor peptides. Mice are immunized with peptides from two human pathogens (HIV and HCV) as well as peptides from two human tumor antigens (annexin V and gp100, identified in human melanomas). Applicants have previously performed binding studies with these peptides and shown that they bind with high affinity to DR4. The T cell response is analyzed in two different assays. First, the frequency of peptide-specific T cells is analyzed in draining lymph nodes with DR4/peptide tetramers. This approach provides a quantitative readout of the induced T cell response. Second, the cytokine production profile of these T cells is determined following a 48 hour in vitro re-stimulation with the relevant peptide. The cytometric bead array technique is utilized for comprehensive definition of the cytokine repertoire. Either Compound (Ia) is co-administered with the peptide of interest in the adjuvant or peptides are utilized with a covalently linked Compound (Ia) group (or other groups, depending on which one is being tested). […] These experiments are expected to establish the in vivo efficacy of Compound (Ia) and to establish appropriate dosing and administration procedures with rapid, quantitative readouts. […]

In data set [2] the target is T2, DR2 (Homo sapiens, UniProt P01903+P01911). Put plainly: Real-time fluorescence polarization peptide binding assay (DR2/CLIP plus Alexa-488 labeled MBP peptide). For orientation: Fluorescence polarisation rises when a labelled molecule tumbles more slowly, as on binding a larger partner.
Data set [3] addresses T2, DR2. Put plainly: Dissociation of pre-bound Alexa-488 labeled MBP peptide from DR2 followed by fluorescence polarization. The format is biochemical. More on the design: we generated DR/CLIP complexes as soluble molecules in CHO cells; CLIP peptide (of invariant chain, CD74) joined through a linker with a thrombin cleavage site (N, cleaved yes); made in house. The following applies: for displacement (dissociation) of labeled MBP peptide from DR2 by competitor: competitor 50 μM, 150 nM DR2/50 nM Alexa-488 MBP. Here is the method:
We also examined whether Compound (Ia) could induce the release of a previously bound high affinity peptide from DR2 as shown in FIG. 4B. This issue is important for potential applications of this small molecule because most DR molecules are occupied by intermediate to high affinity peptides. Applicants therefore loaded the DR2 molecule with the high affinity Alexa™-488 MBP peptide during an overnight incubation and then examined if Compound (Ia) could induce dissociation of this labeled peptide. A molar excess of an unlabeled MBP peptide was added to inhibit rebinding of the labeled peptide to DR2. […] Compound (Ia) thus substantially accelerates peptide binding by creating empty DR molecules.
We then tested the concept of “self-catalyzed peptide loading” by synthesizing the MBP peptide with an N-terminal or C-terminal cysteine to which the Compound (Ia)-maleimide was linked. These peptide-Compound (Ia) compounds were purified by reverse-phase HPLC and their identity verified by mass spectrometry. Applicants then examined whether the linked Compound (Ia) group could displace a high affinity peptide from the DR2 binding site. For that purpose, we loaded DR2 (1.5 μM) with the Alexa™-488 labeled MBP peptide (500 nM) at 37° C. for 5 hours. The complex was then diluted to 150 nM DR2/50 nM Alexa™-488 and added to a 384-well plate in a volume of 40 μl.

A further data set has as its target T3, DR2/CLIP (Homo sapiens, UniProt P01903+P01911).
T3 construct: we generated DR/CLIP complexes as soluble molecules in CHO cells; CLIP peptide (of invariant chain, CD74) joined through a linker with a thrombin cleavage site (N, cleaved yes); made in house
The data set is described as follows: Competition for binding of labeled MBP peptide to DR2/CLIP in the FP assay. The following applies: 10 nM MBP-488, 100 nM DR2/CLIP, wide dose range. The method, then: Competitor peptides were tested over a wide dose range against 10 nM MBP-488 and 100 nM DR2/CLIP in the FP assay.
Compound (Ia)-glatiramer acetate compounds are characterized for their ability to compete for binding of the Alexe™-488 labeled MBP peptide to DR2 in the FP assay, as well as for their ability to inhibit presentation of the MBP peptide to human MBP specific T cell clones, as described in detail above.

For data set [4], the system named is DR2/MBP specific T cell hybridoma. Put plainly: T cell assay: IL-2 release by DR2/MBP specific T cell hybridoma, MBP (85-99) presented by MGAR cells. In kind it is cell-based. The following applies: MGAR cells as APC. Here is the method:
Peptide presentation of MBP (85-99) to T cell hybridomas by MGAR cells was measured by IL-2 release.

For data set [5] the following is noted: DR2/TCR transgenic mice and other EAE models, from a mean score of ~4; cited from earlier work.
For data set [6] the following is noted: 20 mg daily subcutaneously over two years; cited from earlier work.

“Also recorded” adds a separate entry of the source. Ends that are not written are not given here. C(Compound (Ia)-maleimide) = not defined here

Regarding `O=C(Cc1c(C(=O)O)[nH]c2ccc(Cl)cc12)Nc1ccc(F)c(Cl)c1` [Compound (Ia)], the “peptide association to empty DR2 molecules” value on empty DR2 molecules is given as “substantially accelerated peptide association to empty DR2 molecules”. Further, in the data set on MGAR cells (1 μM MBP peptide plus compound versus 10 μM peptide alone), the “lowering of the dose of peptide required for equivalent staining / presentation” value is listed as “approximately 10 fold”. Moreover, the “presentation of MBP on MGAR cells (MK16 staining)” value in the data set on MGAR cells (100 μM compound, 1.7 μM MBP peptide, 30 minutes at 37° C.) is on record as “significantly increased”. The “acute toxicity, observation of mice” value in [1] is recorded as “no sips of distress”. For the same molecule, the “loading of peptides on dendritic cells in vivo” value in the data set on dendritic cells was “increases loading of peptides in a dose-dependent manner”. Moreover, the “CD4 T cell response following immunization” value with CD4 T cell response was “substantial enhancement”. Further, the “fold increase of the initial rate of peptide association” value on DR2 [2] (neutral pH) is listed as 22 fold; on DR2 [2] (pH range from pH 4.5 to 5.75) it was “more than 58 fold”. Moreover, the “time to reach half-maximal peptide association” value at DR2 [2] (pH 5.2, absence of DM, compound at 109 μM (160 minutes without compound)) is 7 min. Besides, on DR2 [2] (pH 5.2, higher compound concentrations), the “rate of peptide binding reaction compared to DM” value was “faster than in the presence of DM”. In addition, at DR2 [2] (pH range 3.75-7.0), the “pH of maximum activity” value stood at 5.25. Also, the “dissociation of previously bound high affinity labeled MBP peptide from DR2” value at DR2 [3] (excess unlabeled MBP peptide, versus DMSO control) is given as “marked acceleration of peptide dissociation”. Besides, at DR2 [3] (release of high affinity peptides from DR2), the “concentration range inducing peptide dissociation” value is “low micro-molar range”.
Regarding `O=C(Cc1c(C(=O)O)[nH]c2ccccc12)Nc1ccc(Cl)c(Cl)c1` [Compound (Ic)], the “activity relative to Compound (Ia) in loading of MBP peptide to DR2” value (“activity relative to Compound (Ia)” below) in the data set with MGAR cells was “higher activities than Compound (Ia)”.
Regarding “MBP-C-Compound (Ia): MBP peptide with a C-terminal cysteine to which the Compound (Ia)-maleimide was linked (PGSRPHLIRLFSRDA-{C(Compound (Ia)-maleimide)}; reading uncertain; UniProt P02686 85-99, looked up, fragment)”, in the data set with DR2/CLIP, the “competition against labeled MBP peptide for DR2/CLIP” value is “more effective competitor than unmodified MBP peptide”. Further, the “IL-2 production by T cell hybridoma” value in data set [4] is given as “higher levels of IL-2 production”. The “displacement (dissociation) of labeled MBP peptide from DR2 by competitor” value with DR2 [3] (listed as MBP peptide with C-terminally linked Compound (Ia)) is “more effective in displacing the labeled peptide; also recorded: more favorable”.
Take glatiramer acetate: the “mean EAE score under treatment” value in [5] was around 2. Further, the “reduction of relapse rate” value in data set [6] is 29%.
Turning to `O=C(Cc1c(C(=O)O)[nH]c2c(F)c(F)c(F)cc12)Nc1ccc(F)c(Cl)c1` [Compound (Id)], the “activity relative to Compound (Ia)” value in the data set with MGAR cells was “higher activities than Compound (Ia)”.
“MBP peptide without linked Compound (Ia): unmodified myelin basic protein (85-99) peptide that binds with high affinity to DR2 (PGSRPHLIRLFSRDA; UniProt P02686 85-99, looked up, fragment) [reference compound]”: in the data set with DR2 [3], the “displacement (dissociation) of labeled MBP peptide from DR2 by competitor” value is listed as “slow dissociation”.
As to `O=C(Cc1c(C(=O)O)[nH]c2c(F)c(F)c(F)cc12)Nc1ccc(Cl)c(Cl)c1` [Compound (Ib)], the “activity relative to Compound (Ia)” value with MGAR cells is given as “substantially higher activity than Compound (Ia)”. For the same molecule, the “fold higher activity than Compound (Ia) in catalyzing loading of the MBP peptide to DR2” value at DR2 [2] (biochemical assay) came to 4.2 fold.
